Test system: TFH cells
Assay: IL-21 secretion by in vitro differentiated TFH cells cultured with pharmacologic inhibitors (ELISA)
Assay type: cell-based, human
Details: 5 days with inhibitor (A64 150-2500 nM; PF06260933 3.7-100 nM), restimulated with anti-CD3+anti-CD28, ELISA
Experimental: Human primary CD4+ T cells were cultured under TFH condition for 5 days in the presence of the indicated concentrations of each inhibitor (150 nM to 2500 nM for A64, 3.7 nM to 100 nM for PF06260933). In addition, anti-CD3- and anti-CD28-stimulated human CD4+ T cells (non-TFH) were cultured in the presence of inhibitors. After 5 days of primary culture, cells were harvested and 10^6 cells were restimulated with plate-bound human anti-CD3+ anti-CD28 (1 ug/ml each) in the presence of inhibitors. Culture supernatants were collected at the indicated timepoints for measurement of IL-2 and IL-21 by ELISA (eBioscience).

Question: For `Nc1ccc(-c2cnc(N)c(-c3ccc(Cl)cc3)c2)cn1` [PF06260933], which “IL-21 production by TFH cells” value is on record?
Answer: dose-dependent reduction

Question: What about the “IL-21 production by TFH cells” value (listed as MINK inhibitory drug) of the same compound?
Answer: dose-dependent inhibition
